{"source": "paper PMC5218480", "about": "(PLoS ONE, 2017)", "test_system": "MV-4-11 cells", "experiment": "Gene expression microarray analysis (Affymetrix PrimeView) and GSEA", "type": "cell-based, human", "parameters": "RFU PODN (11730768_x_at) / Fold change /veh PODN (11730768_x_at) / RFU LINC00158 (11744669_a_at) / Fold change /veh LINC00158 (11744669_a_at) / RFU DUSP10 (11751237_a_at) / Fold change /veh DUSP10 (11751237_a_at) / RFU ID3 (11757404_x_at) / Fold change /veh ID3 (11757404_x_at) / RFU PLEKHG5 (11737974_s_at) / Fold change /veh PLEKHG5 (11737974_s_at) / RFU LRRC4B (11730491_at) / Fold change /veh LRRC4B (11730491_at) / RFU GIMAP4 (11747438_a_at) / Fold change /veh GIMAP4 (11747438_a_at) / RFU KRT8 (11758183_x_at) / Fold change /veh KRT8 (11758183_x_at) / RFU CNN1 (11734310_a_at) / Fold change /veh CNN1 (11734310_a_at) / RFU VPS37D (11726825_at) / Fold change /veh VPS37D (11726825_at) / RFU C10orf10 (11716522_x_at) / Fold change /veh C10orf10 (11716522_x_at) / RFU KIR2DL2 /// KIR2DL4 /// KIR2DL5A /// KIR2DL5B /// KIR2DS1 /// KIR2DS2 /// KIR2DS3 /// KIR2DS4 /// KIR3DL3 /// KIR3DL3 /// KIR3DS1 (11738374_at) / Fold change /veh KIR2DL2 /// KIR2DL4 /// KIR2DL5A /// KIR2DL5B /// KIR2DS1 /// KIR2DS2 /// KIR2DS3 /// KIR2DS4 /// KIR3DL3 /// KIR3DL3 /// KIR3DS1 (11738374_at) / RFU C1QL1 (11718748_at) / Fold change /veh C1QL1 (11718748_at) / RFU TMPRSS4 (11747572_a_at) / Fold change /veh TMPRSS4 (11747572_a_at) / RFU HAMP (11756126_x_at) / Fold change /veh HAMP (11756126_x_at) / RFU RNFT2 (11725882_a_at) / Fold change /veh RNFT2 (11725882_a_at) / RFU NR4A2 (11747474_a_at) / Fold change /veh NR4A2 (11747474_a_at) / RFU ABCC12 (11746883_a_at) / Fold change /veh ABCC12 (11746883_a_at) / RFU TMEM136 (11760407_x_at) / Fold change /veh TMEM136 (11760407_x_at) / RFU CLDN22 /// WWC2 (11732394_at) / Fold change /veh CLDN22 /// WWC2 (11732394_at) / RFU HLA-DPB1 (11760878_x_at) / Fold change /veh HLA-DPB1 (11760878_x_at) / RFU SPINT1 (11716480_a_at) / Fold change /veh SPINT1 (11716480_a_at) / RFU GAP43 (11754022_s_at) / Fold change /veh GAP43 (11754022_s_at) / RFU A4GNT (11735810_at) / Fold change /veh A4GNT (11735810_at) / RFU PRB3 (11715151_x_at) / Fold change /veh PRB3 (11715151_x_at) / RFU TUBB4B (11761932_at) / Fold change /veh TUBB4B (11761932_at) / RFU CAPN14 (11732068_a_at) / Fold change /veh CAPN14 (11732068_a_at) / RFU TMCC2 (11721928_a_at) / Fold change /veh TMCC2 (11721928_a_at) / RFU IRGQ (11745062_a_at) / Fold change /veh IRGQ (11745062_a_at) / RFU FAM174B (11720279_a_at) / Fold change /veh FAM174B (11720279_a_at) / RFU TMPRSS4 (11748680_a_at) / Fold change /veh TMPRSS4 (11748680_a_at) / RFU FAM212B (11763350_a_at) / Fold change /veh FAM212B (11763350_a_at) / RFU PLEKHG5 (11743358_a_at) / Fold change /veh PLEKHG5 (11743358_a_at) / RFU ZSCAN30 (11745921_a_at) / Fold change /veh ZSCAN30 (11745921_a_at) / RFU CMKLR1 (11741424_a_at) / Fold change /veh CMKLR1 (11741424_a_at) / RFU LOC101060620 /// MAPK8IP1 (11723275_at) / Fold change /veh LOC101060620 /// MAPK8IP1 (11723275_at) / RFU SPTSSB (11747773_x_at) / Fold change /veh SPTSSB (11747773_x_at) / RFU PRSS12 (11739890_at) / Fold change /veh PRSS12 (11739890_at) / RFU BIN1 (11741810_x_at) / Fold change /veh BIN1 (11741810_x_at) / RFU WNT11 (11732464_a_at) / Fold change /veh WNT11 (11732464_a_at) / RFU C10orf10 (11716521_a_at) / Fold change /veh C10orf10 (11716521_a_at) / RFU C5orf56 (11738089_at) / Fold change /veh C5orf56 (11738089_at) / RFU CYB561 (11721691_x_at) / Fold change /veh CYB561 (11721691_x_at) / RFU ANKRD19P (11752326_a_at) / Fold change /veh ANKRD19P (11752326_a_at) / RFU OR2T12 /// OR2T33 /// OR2T8 (11738714_s_at) / Fold change /veh OR2T12 /// OR2T33 /// OR2T8 (11738714_s_at) / RFU VCAN (11748164_a_at) / Fold change /veh VCAN (11748164_a_at) / RFU JSRP1 (11732532_at) / Fold change /veh JSRP1 (11732532_at) / RFU KRTAP10-11 (11738290_x_at) / Fold change /veh KRTAP10-11 (11738290_x_at) / RFU MYO3A (11730013_a_at) / Fold change /veh MYO3A (11730013_a_at) / RFU EBF3 (11725865_a_at) / Fold change /veh EBF3 (11725865_a_at) / RFU CAMK2N1 (11719241_x_at) / Fold change /veh CAMK2N1 (11719241_x_at) / RFU C5orf56 (11738088_a_at) / Fold change /veh C5orf56 (11738088_a_at) / RFU OLFML3 (11715873_a_at) / Fold change /veh OLFML3 (11715873_a_at) / RFU LOC100653217 /// NTM (11731650_a_at) / Fold change /veh LOC100653217 /// NTM (11731650_a_at) / RFU MAPK11 (11762145_a_at) / Fold change /veh MAPK11 (11762145_a_at) / RFU FIZ1 (11724087_x_at) / Fold change /veh FIZ1 (11724087_x_at) / RFU OASL (11726364_x_at) / Fold change /veh OASL (11726364_x_at) / RFU SOX15 (11748057_x_at) / Fold change /veh SOX15 (11748057_x_at) / RFU CD79A (11719716_a_at) / Fold change /veh CD79A (11719716_a_at) / RFU HIST1H1D (11736915_at) / Fold change /veh HIST1H1D (11736915_at) / RFU CASKIN2 (11723855_a_at) / Fold change /veh CASKIN2 (11723855_a_at) / RFU LOC730098 (11760151_x_at) / Fold change /veh LOC730098 (11760151_x_at) / RFU OR4N2 (11742367_at) / Fold change /veh OR4N2 (11742367_at) / RFU PRRT2 (11749266_a_at) / Fold change /veh PRRT2 (11749266_a_at) / RFU SNX32 (11753110_a_at) / Fold change /veh SNX32 (11753110_a_at) / RFU CDHR5 (11726645_a_at) / Fold change /veh CDHR5 (11726645_a_at) / RFU RCAN1 (11760418_a_at) / Fold change /veh RCAN1 (11760418_a_at) / RFU FAM167A (11723789_a_at) / Fold change /veh FAM167A (11723789_a_at) / RFU FAM26E (11764081_at) / Fold change /veh FAM26E (11764081_at) / RFU ISYNA1 (11749810_s_at) / Fold change /veh ISYNA1 (11749810_s_at) / RFU ACY1 (11761880_at) / Fold change /veh ACY1 (11761880_at) / RFU 11764098_at / Fold change /veh 11764098_at / RFU SAMD14 (11745864_x_at) / Fold change /veh SAMD14 (11745864_x_at) / RFU NPB (11741838_a_at) / Fold change /veh NPB (11741838_a_at) / RFU TMPRSS6 (11731388_a_at) / Fold change /veh TMPRSS6 (11731388_a_at) / RFU KRTAP10-2 (11738614_at) / Fold change /veh KRTAP10-2 (11738614_at) / RFU ARHGAP8 /// PRR5-ARHGAP8 (11727945_x_at) / Fold change /veh ARHGAP8 /// PRR5-ARHGAP8 (11727945_x_at) / RFU KRTAP5-7 /// NADSYN1 (11734609_at) / Fold change /veh KRTAP5-7 /// NADSYN1 (11734609_at) / RFU RASL12 (11751679_a_at) / Fold change /veh RASL12 (11751679_a_at) / RFU CDKN2B (11736163_a_at) / Fold change /veh CDKN2B (11736163_a_at) / RFU PRF1 (11729649_at) / Fold change /veh PRF1 (11729649_at) / RFU, ZNF638 /// ZNF638-IT1 / Fold change vs veh, ZNF638 /// ZNF638-IT1 / RFU, PANK3 / Fold change vs veh, PANK3 / RFU, SH3YL1 / Fold change vs veh, SH3YL1 / RFU, ZEB2 / Fold change vs veh, ZEB2 / RFU, NRIP1 / Fold change vs veh, NRIP1 / RFU, PTTG1IP / Fold change vs veh, PTTG1IP / RFU, CAPN2 / Fold change vs veh, CAPN2 / RFU, MED14 / Fold change vs veh, MED14 / RFU, SNORA58 / Fold change vs veh, SNORA58 / RFU, C1orf63 / Fold change vs veh, C1orf63 / RFU, LRRFIP1 / Fold change vs veh, LRRFIP1 / RFU, NDUFAF7 / Fold change vs veh, NDUFAF7 / RFU, SLC12A2 / Fold change vs veh, SLC12A2 / RFU, IBTK / Fold change vs veh, IBTK / RFU, ESF1 / Fold change vs veh, ESF1 / Fold change vs veh, TMEM50B / RFU, TAOK1 / Fold change vs veh, TAOK1 / RFU, ACBD3 / Fold change vs veh, ACBD3 / RFU, TMA16 / Fold change vs veh, TMA16 / RFU, RWDD3 / Fold change vs veh, RWDD3 / RFU, BCAT1 / Fold change vs veh, BCAT1 / RFU, EDEM3 / Fold change vs veh, EDEM3 / RFU, TMEM33 / Fold change vs veh, TMEM33 / RFU, WDR75 / Fold change vs veh, WDR75 / RFU, AHCTF1 / Fold change vs veh, AHCTF1 / RFU, TFRC / Fold change vs veh, TFRC / RFU, ZDHHC17 / Fold change vs veh, ZDHHC17 / RFU, NOM1 / Fold change vs veh, NOM1 / RFU, ARL8B / Fold change vs veh, ARL8B / RFU, ZBTB11 / Fold change vs veh, ZBTB11 / RFU, TAMM41 / Fold change vs veh, TAMM41 / RFU, KIAA1704 /// LOC100996395 / Fold change vs veh, KIAA1704 /// LOC100996395 / RFU, ING1 / Fold change vs veh, ING1 / RFU, TRMT61B / Fold change vs veh, TRMT61B / RFU, FUBP3 / Fold change vs veh, FUBP3 / RFU, TP53 / Fold change vs veh, TP53 / RFU, TNKS2 / Fold change vs veh, TNKS2 / RFU, ZFP14 / Fold change vs veh, ZFP14 / RFU, ACTR2 / Fold change vs veh, ACTR2 / RFU, PPP3R1 / Fold change vs veh, PPP3R1 / RFU, PIK3R1 / Fold change vs veh, PIK3R1 / RFU, HNRNPA1 / Fold change vs veh, HNRNPA1 / RFU, RNF170 / Fold change vs veh, RNF170 / RFU, ZNF28 / Fold change vs veh, ZNF28 / RFU, RNGTT / Fold change vs veh, RNGTT / RFU, OGT / Fold change vs veh, OGT / RFU, BRD1 / Fold change vs veh, BRD1 / RFU, MARS / Fold change vs veh, MARS / RFU, ZNF655 / Fold change vs veh, ZNF655 / RFU, FAHD1 / Fold change vs veh, FAHD1 / RFU, BDP1 / Fold change vs veh, BDP1 / RFU, LRRCC1 / Fold change vs veh, LRRCC1 / RFU, ARID1A / Fold change vs veh, ARID1A / RFU, ZNF146 / Fold change vs veh, ZNF146 / RFU, ZNF330 / Fold change vs veh, ZNF330 / RFU, GPN3 / Fold change vs veh, GPN3 / RFU, C9orf123 / Fold change vs veh, C9orf123 / RFU, N4BP2L2 / Fold change vs veh, N4BP2L2 / RFU, ARFIP1 / Fold change vs veh, ARFIP1 / RFU, FAM179B / Fold change vs veh, FAM179B / RFU, BCL10 / Fold change vs veh, BCL10 / RFU, UHRF1BP1L / Fold change vs veh, UHRF1BP1L / RFU, BET1 / Fold change vs veh, BET1 / RFU, CNOT2 / Fold change vs veh, CNOT2 / RFU, ZNF268 / Fold change vs veh, ZNF268 / Fold change vs veh, ZNF507 / RFU, DGCR2 / Fold change vs veh, DGCR2 / RFU, WDSUB1 / Fold change vs veh, WDSUB1 / Fold change vs veh, HSP90B1 /// MIR3652 / RFU, ADSS / Fold change vs veh, ADSS / RFU, GK / Fold change vs veh, GK / RFU, ZNF148 / Fold change vs veh, ZNF148 / RFU, TAF9 / Fold change vs veh, TAF9 / RFU, SLC1A5 / Fold change vs veh, SLC1A5 / RFU, SLMO2 / Fold change vs veh, SLMO2 / RFU, ABCC4 / Fold change vs veh, ABCC4 / RFU, LOC101060439 /// RAP1B / Fold change vs veh, LOC101060439 /// RAP1B / RFU, RFX7 / Fold change vs veh, RFX7 / RFU, GTPBP10 / Fold change vs veh, GTPBP10 / RFU, CNEP1R1 / Fold change vs veh, CNEP1R1 / RFU, BIVM-ERCC5 /// ERCC5 / Fold change vs veh, BIVM-ERCC5 /// ERCC5 / RFU, ILF3 / Fold change vs veh, ILF3 / RFU 11762660_at / Fold change /veh 11762660_at / RFU VCAN (11757783_s_at) / Fold change /veh VCAN (11757783_s_at) / RFU DDX43 (11728927_at) / Fold change /veh DDX43 (11728927_at) / RFU KRT8 (11758188_x_at) / Fold change /veh KRT8 (11758188_x_at) / RFU NKD1 (11759106_at) / Fold change /veh NKD1 (11759106_at) / RFU SRD5A1 (11742802_a_at) / Fold change /veh SRD5A1 (11742802_a_at) / RFU TPSAB1 /// TPSB2 (11721975_s_at) / Fold change /veh TPSAB1 /// TPSB2 (11721975_s_at) / RFU GSTM3 (11746129_a_at) / Fold change /veh GSTM3 (11746129_a_at) / RFU IL23R (11737362_x_at) / Fold change /veh IL23R (11737362_x_at) / RFU TMEM51 (11727254_a_at) / Fold change /veh TMEM51 (11727254_a_at) / RFU PIWIL2 (11732686_x_at) / Fold change /veh PIWIL2 (11732686_x_at) / RFU ORM1 (11744905_x_at) / Fold change /veh ORM1 (11744905_x_at) / RFU CCDC152 (11743942_at) / Fold change /veh CCDC152 (11743942_at) / RFU ECM1 (11717891_a_at) / Fold change /veh ECM1 (11717891_a_at) / RFU IL23R (11748794_a_at) / Fold change /veh IL23R (11748794_a_at) / RFU TNFAIP8L3 (11732012_x_at) / Fold change /veh TNFAIP8L3 (11732012_x_at) / RFU MBOAT4 (11741988_at) / Fold change /veh MBOAT4 (11741988_at) / RFU 11764193_at / Fold change /veh 11764193_at / RFU TMEM53 (11763286_at) / Fold change /veh TMEM53 (11763286_at) / RFU MAGEB2 (11727129_at) / Fold change /veh MAGEB2 (11727129_at) / RFU TMEM200A (11744735_a_at) / Fold change /veh TMEM200A (11744735_a_at) / RFU CCDC152 (11751479_a_at) / Fold change /veh CCDC152 (11751479_a_at) / RFU FAM211A (11726209_a_at) / Fold change /veh FAM211A (11726209_a_at) / RFU RGS16 (11746705_a_at) / Fold change /veh RGS16 (11746705_a_at) / RFU VCAN (11755009_s_at) / Fold change /veh VCAN (11755009_s_at) / RFU RHOB (11743442_s_at) / Fold change /veh RHOB (11743442_s_at) / RFU RGS16 (11720943_a_at) / Fold change /veh RGS16 (11720943_a_at) / RFU RGS16 (11720944_at) / Fold change /veh RGS16 (11720944_at) / RFU, VPS4B / Fold change vs veh, VPS4B / RFU, CREB1 / Fold change vs veh, CREB1 / RFU, DNAJC13 / Fold change vs veh, DNAJC13 / RFU, GNAQ / Fold change vs veh, GNAQ / RFU, CDK5R1 / Fold change vs veh, CDK5R1 / RFU, ZRANB3 / Fold change vs veh, ZRANB3 / RFU, CUL4A / Fold change vs veh, CUL4A / RFU, CCNY / Fold change vs veh, CCNY / RFU, UFL1 / Fold change vs veh, UFL1 / RFU, COG3 / Fold change vs veh, COG3 / RFU, DIAPH2 / Fold change vs veh, DIAPH2 / RFU, SKA2 / Fold change vs veh, SKA2 / RFU, AFF3 / Fold change vs veh, AFF3 / RFU, LMF1 / Fold change vs veh, LMF1 / RFU, IPO11 / Fold change vs veh, IPO11 / RFU, DFFB / Fold change vs veh, DFFB / RFU, FOXP1 / Fold change vs veh, FOXP1 / RFU, CARD8 / Fold change vs veh, CARD8 / RFU, STRN3 / Fold change vs veh, STRN3 / RFU, ADK / Fold change vs veh, ADK / RFU, RASSF2 / Fold change vs veh, RASSF2 / RFU, WIPF1 / Fold change vs veh, WIPF1 / RFU, LARP1B / Fold change vs veh, LARP1B / RFU, RASA1 / Fold change vs veh, RASA1 / RFU, RB1 / Fold change vs veh, RB1 / RFU, PPFIA1 / Fold change vs veh, PPFIA1 / RFU, MAT2A / Fold change vs veh, MAT2A / RFU, CCT5 / Fold change vs veh, CCT5 / RFU, WDR92 / Fold change vs veh, WDR92 / RFU, CUX1 / Fold change vs veh, CUX1 / RFU, TTC7A / Fold change vs veh, TTC7A / RFU, TMEM135 / Fold change vs veh, TMEM135 / RFU, DEPTOR / Fold change vs veh, DEPTOR / RFU, CPM / Fold change vs veh, CPM / RFU, DNAJB6 / Fold change vs veh, DNAJB6 / RFU, CACNA2D3 / Fold change vs veh, CACNA2D3 / RFU, DTX4 / Fold change vs veh, DTX4 / RFU, TFCP2 / Fold change vs veh, TFCP2 / RFU, GMCL1 /// GMCL1P1 / Fold change vs veh, GMCL1 /// GMCL1P1 / RFU, AEBP2 / Fold change vs veh, AEBP2 / RFU, SNHG1 /// SNORD22 /// SNORD25 /// SNORD26 /// SNORD27 /// SNORD28 /// SNORD29 /// SNORD31 / Fold change vs veh, SNHG1 /// SNORD22 /// SNORD25 /// SNORD26 /// SNORD27 /// SNORD28 /// SNORD29 /// SNORD31 / Fold change (Aza/veh), C12orf56 (ProbeSet 11735607_a_at) / Fold change (ACY-1035/veh), C12orf56 (ProbeSet 11735607_a_at) / Fold change (Aza/veh), FGFR1OP (ProbeSet 11751329_s_at) / Fold change (ACY-1035/veh), FGFR1OP (ProbeSet 11751329_s_at) / Fold change (Aza/veh), VPS36 (ProbeSet 11739960_a_at) / Fold change (ACY-1035/veh), VPS36 (ProbeSet 11739960_a_at) / RFU SYPL1 (11715823_x_at) / Fold change /veh SYPL1 (11715823_x_at) / RFU IGFBP7 (11715501_s_at) / Fold change /veh IGFBP7 (11715501_s_at) / RFU REEP3 (11722064_at) / Fold change /veh REEP3 (11722064_at) / RFU IGLL1 (11728026_x_at) / Fold change /veh IGLL1 (11728026_x_at): dose or concentration left out as unconfirmed", "conditions": "MV-4-11 cells, 48 hours"}
{"smiles": "Nc1ccc(-c2cccs2)cc1NC(=O)c1ccc2c(c1)cc(C1CC1)n2CCN1CCOCC1", "note": "[ACY-1035]", "values": [{"measurement": "RFU SOX15 (11748057_x_at)", "value": 11.14, "unit": "RFU"}]}
